Earlier results, collected in patent US12102684B2, “Methods of making and using polyphenols complexed with a protein, peptide, amino acid, polysaccharide, disaccharide, or monosaccharide” (priority 2016, dated 2024).

Experiments:
[1] = previous studies

Row | solubility in organic solvents (organic solvents (methanol, acetone, DMSO, etc.)) | solubility in water | oral clearance [1] [mL/min/kg] | Compound
1 | 16-50 grams/liter | 0.03 grams/liter |  | Oc1ccc(/C=C/c2cc(O)cc(O)c2)cc1 [Resveratrol, 3,5,4′-trihydroxy-trans-stilbene]
2 |  | very poor | 1808 | COc1cc(/C=C/C(=O)CC(=O)/C=C/c2ccc(O)c(OC)c2)ccc1O [curcumin, (1E,6E)-1,7-bis(4hydroxy-3-methoxyphenyl)hepta-1,6-diene-3,5-dione]

Row | Compound | solubility in organic solvents (organic solvents (methanol, acetone, DMSO, etc.)) | solubility in water | oral clearance [1] [mL/min/kg]
3 | COc1cc([C@@H]2Oc3c(O)cc([C@H]4Oc5cc(O)cc(O)c5C(=O)[C@@H]4O)cc3[C@H]2CO)ccc1O [Silychristin] |  | water insoluble | 
